Active and inactive are the calls of the source. The rule behind the calls is not given here.
What was measured:
MGC-803 [1] = experiment: Antiproliferative activity against human MGC-803 cells assessed as inhibition of cell growth measured after 48 hrs by MTT assay; assay type: functional, cell-based; details: MGC-803, 48 h
HGC-27 = experiment: Antiproliferative activity against human HGC-27 cells assessed as inhibition of cell growth measured after 48 hrs by MTT assay; assay type: functional, cell-based; details: HGC-27, 48 h
SGC-7901 [2] = experiment: Antiproliferative activity against human SGC-7901 cells assessed as inhibition of cell growth measured after 48 hrs by MTT assay; assay type: functional, cell-based; details: SGC-7901, 48 h
PC-3 = experiment: Antiproliferative activity against human PC-3 cells assessed as inhibition of cell growth measured after 48 hrs by MTT assay; assay type: functional, cell-based; details: PC-3, 48 h
TE-1 = experiment: Antiproliferative activity against human TE-1 cells assessed as inhibition of cell growth measured after 48 hrs by MTT assay; assay type: functional, cell-based; details: TE-1, 48 h
Huh-7 = experiment: Antiproliferative activity against human Huh-7 cells assessed as inhibition of cell growth measured after 48 hrs by MTT assay; assay type: functional, cell-based; details: Huh-7, 48 h
SMMC-7721 = experiment: Antiproliferative activity against human SMMC-7721 cells assessed as inhibition of cell growth measured after 48 hrs by MTT assay; assay type: functional, cell-based; details: SMMC-7721, 48 h
MGC-803 [3] = experiment: Antiproliferative activity against human MGC-803 cells assessed as inhibition of cell growth at 15 to 45 […] by MTT assay; assay type: functional, cell-based; details: dose 15-45 µmol/L, time <= 72.0 hrs, TDE = time-dependent effect
GES1 = experiment: Cytotoxicity against human GES1 cells assessed as reduction in cell viability at 5 to 40 nM measured after 48 hrs by MTT assay; assay type: toxicity, cell-based; details: ges1, 48 h, 0.04 µM, dose 5-40 nM
HUVEC = experiment: Cytotoxicity against human HUVEC cells assessed as reduction in cell viability at 5 to 40 nM measured after 48 hrs by MTT assay; assay type: toxicity, cell-based; details: 0.04 µM, dose 5-40 nM
[4] = Cytotoxicity against human GES1 cells assessed as reduction in cell viability measured after 48 hrs by MTT assay; assay type: toxicity, cell-based
[5] = Cytotoxicity against human HUVEC cells assessed as reduction in cell viability measured after 48 hrs by MTT assay; assay type: toxicity, cell-based
[6] = (§1) Inhibition of porcine brain microtubule polymerization measured after 1 hrs by fluorescence based assay; parameters: species or system Sus scrofa
Sus scrofa = species: Sus scrofa; experiment: as §1; details: DDE = dose-dependent effect
[7] = biological target: T1, Tubulin beta (Homo sapiens) (UniProt P68371+Q9H4B7+Q13509+P04350+Q3ZCM7+P07437+Q13885+Q9BVA1+Q9BUF5+A6NNZ2); experiment: Binding affinity to beta-tubulin colchicine binding site in human MGC-803 cells assessed as inhibition of EBI-beta-tubulin adduct band formation preincubated for 2 hrs followed by EBI addition and measured after 2 hrs by EBI competition based Western blotting analysis; assay type: cell-based; details: dose 1-10 µM, time 4.0 hrs, DDE = dose-dependent effect
[8] = biological target: T1, Tubulin beta (Homo sapiens); experiment: Binding affinity to beta-tubulin colchicine binding site in human SGC-7901 cells assessed as inhibition of EBI-beta-tubulin adduct band formation preincubated for 2 hrs followed by EBI addition and measured after 2 hrs by EBI competition based Western blotting analysis; assay type: cell-based; details: dose 1-10 µM, time 4.0 hrs, DDE = dose-dependent effect
Tubulin (Homo sapiens) [9] = biological target: T2, Tubulin (Homo sapiens) (UniProt P68371+Q9H4B7+P0DPH7+P68366+Q13509+Q71U36+P04350+Q3ZCM7+P07437+P68363+Q9BQE3+Q6PEY2+Q13885+Q9BVA1+Q9BUF5); experiment: Induction of microtubule disruption in human MGC-803 cells at 25 nmol/L measured after 48 hrs by DAPI staining based immunofluorescence assay; assay type: cell-based
Tubulin (Homo sapiens) [10] = biological target: T2, Tubulin (Homo sapiens); experiment: Induction of microtubule disruption in human SGC-7901 cells measured after 48 hrs by DAPI staining based immunofluorescence assay; assay type: cell-based; details: dose 15-45 nmol/L, DDE = dose-dependent effect
SGC-7901 [11] = experiment: Induction of cell cycle arrest in human SGC-7901 cells assessed as increase in G2/M phase cells measured after 24 hrs by flow cytometry; assay type: functional, cell-based; details: dose 15-45 nmol/L, DDE = dose-dependent effect
MGC-803 [12] = experiment: Induction of cell cycle arrest in human MGC-803 cells assessed as increase in G2/M phase cells at 45 nmol/L measured after 24 hrs by flow cytometry (reference value: 19.38%); assay type: functional
MGC-803 [13] = experiment: Induction of G2/M phase cell cycle arrest in human MGC-803 cells assessed as decrease in cyclin A1 expression at 15 to 45 nmol/L measured after 48 hrs by Western blot analysis; assay type: functional, cell-based; details: dose 15-45 nmol/L
SGC-7901 [14] = experiment: Induction of G2/M phase cell cycle arrest in human SGC-7901 cells assessed as decrease in cyclin A1 expression at 15 to 45 nmol/L measured after 48 hrs by Western blot analysis; assay type: functional, cell-based; details: dose 15-45 nmol/L
SGC-7901 [15] = experiment: Induction of G2/M phase cell cycle arrest in human SGC-7901 cells assessed as decrease in cyclin A2 expression at 15 to 45 nmol/L measured after 48 hrs by Western blot analysis; assay type: functional, cell-based; details: dose 15-45 nmol/L
MGC-803 [16] = experiment: Induction of G2/M phase cell cycle arrest in human MGC-803 cells assessed as decrease in cyclin B1 expression at 15 to 45 nmol/L measured after 48 hrs by Western blot analysis; assay type: functional, cell-based; details: dose 15-45 nmol/L
SGC-7901 [17] = experiment: Induction of G2/M phase cell cycle arrest in human SGC-7901 cells assessed as decrease in cyclin B1 expression at 15 to 45 nmol/L measured after 48 hrs by Western blot analysis; assay type: functional, cell-based; details: dose 15-45 nmol/L
MGC-803 [18] = experiment: Induction of G2/M phase cell cycle arrest in human MGC-803 cells assessed as decrease in p-cdc2 (T161) expression at 15 to 45 nmol/L measured after 48 hrs by Western blot analysis; assay type: functional, cell-based; details: dose 15-45 nmol/L
SGC-7901 [19] = experiment: Induction of cell apoptosis in human SGC-7901 cells assessed as increase in apoptotic cells measured after 48 hrs by Annexin V/PI staining based flow cytometric analysis; assay type: functional; details: dose 15-45 nmol/L, DDE = dose-dependent effect
[20] = Induction of cell apoptosis in human MGC-803 cells assessed as increase in apoptotic cells at 45 nmol/L measured after 48 hrs by Annexin V/PI staining based flow cytometric analysis (reference value: 21.96%); assay type: functional
[21] = Induction of cell apoptosis in human SGC-7901 cells assessed as increase in apoptotic cells at 45 nmol/L measured after 48 hrs by Annexin V/PI staining based flow cytometric analysis (reference value: 9.28%); assay type: functional
MGC-803 [22] = experiment: Induction of apoptosis in human MGC-803 cells assessed as decrease in c-IAP1 protein expression measured after 48 hrs by Western blot analysis; assay type: functional, cell-based; details: dose 15-45 nmol/L, DDE = dose-dependent effect
SGC-7901 [23] = experiment: Induction of apoptosis in human SGC-7901 cells assessed as decrease in Mcl-1 protein expression measured after 48 hrs by Western blot analysis; assay type: functional, cell-based; details: dose 15-45 nmol/L, DDE = dose-dependent effect
MGC-803 [24] = experiment: Induction of apoptosis in human MGC-803 cells assessed as increase in cleaved caspase 7 expression at 15 to 45 nmol/L measured after 48 hrs by Western blot analysis; assay type: functional, cell-based; details: dose 15-45 nmol/L
SGC-7901 [25] = experiment: Induction of apoptosis in human SGC-7901 cells assessed as increase in cleaved caspase 9 expression at 15 to 45 nmol/L measured after 48 hrs by Western blot analysis; assay type: functional, cell-based; details: dose 15-45 nmol/L
MGC-803 [26] = experiment: Induction of apoptosis in human MGC-803 cells assessed as increase in cleaved PARP expression at 15 to 45 nmol/L measured after 48 hrs by Western blot analysis; assay type: functional, cell-based; details: dose 15-45 nmol/L
SGC-7901 [27] = experiment: Induction of morphological changes in human SGC-7901 cells assessed as change in concentration of nuclei at 15 to 45 nmol/L measured after 48 hrs by calcein-AM/PI staining based microscopic analysis; assay type: functional, cell-based; details: dose 15-45 nmol/L

Structure (SMILES): C/C=C/C(=O)N(Cc1ccc(OC)c(O)c1)c1cc(OC)c(OC)c(OC)c1
- IC50 (MGC-803 [1]): 0.027 µM
- IC50 (HGC-27): 0.033 µM
- IC50 (SGC-7901 [2]): 0.025 µM
- IC50 (PC-3): 0.055 µM
- IC50 (TE-1): 0.094 µM
- IC50 (Huh-7): 0.06 µM
- IC50 (SMMC-7721): 0.043 µM
- Activity (MGC-803 [3]): Tde
- Activity (GES1): Non-Toxic
- Activity (HUVEC): Non-Toxic
- IC50 at 48 h [4]: 0.768 µM
- IC50 at 48 h [5]: 48.5 µM
- IC50 [6]: 0.92 µM
- inhibition (Sus scrofa): Dde
- Activity [7]: Dde
- Activity [8]: Dde
- Activity (Tubulin (Homo sapiens) [9]): Active
- Activity (Tubulin (Homo sapiens) [10]): Dde
- Activity (SGC-7901 [11]): Dde
- Activity (MGC-803 [12]): 76.97%
- Activity (MGC-803 [13]): Active
- Activity (SGC-7901 [14]): Active
- Activity (SGC-7901 [15]): Active
- Activity (MGC-803 [16]): Active
- Activity (SGC-7901 [17]): Active
- Activity (MGC-803 [18]): Active
- Activity (SGC-7901 [19]): Dde
- Activity [20]: 76.08%
- Activity [21]: 63.51%
- Activity (MGC-803 [22]): Dde
- Activity (SGC-7901 [23]): Dde
- Activity (MGC-803 [24]): Active
- Activity (SGC-7901 [25]): Active
- Activity (MGC-803 [26]): Active
- Activity (SGC-7901 [27]): Active

Source: ChEMBL document CHEMBL5113491, “Discovery of N-benzylarylamide derivatives as novel tubulin polymerization inhibitors capable of activating the Hippo pathway” (Eur J Med Chem, 2022)
